Article PMC6496074, “The Evolution of Azole Resistance in Candida albicans Sterol 14α-Demethylase (CYP51) through Incremental Amino Acid Substitutions” (Antimicrobial Agents and Chemotherapy, 2019)
Converted amounts (≈) assume the structure as drawn. “And” between values parts separate entries of the source, which are not always exact repeats. Identical values can stand only once.

What was measured:
[1] = system: C. albicans SC5314 strain with CaCYP51 substitution D278N; experiment: CLSI broth microdilution MIC; format: cell-based; conditions: Candida albicans, RPMI 1640, 24 h, 35°C, 50% reduction in growth
Excerpt: (§1) Strains expressing seven single mutations (Y132F, K143R, F145L, S405F, G448E, G450E, G464S) and three double mutations (Y132F+K143R, Y132F+F145L, D278N+G464S) were selected from a previous study ([36]). Two additional strains expressing the Y132H and D278N CYP51 gene mutations were created utilizing the SAT1/FLP cassette described previously ([44]). […] Successful transformants were screened on yeast-peptone-dextrose agar plates containing nourseothricin and confirmed via Southern hybridization. Genomic DNA from nourseothricin-screened transformants was digested with the HindIII restriction enzyme, and the resulting DNA digests were loaded on 1% agarose gels containing ethidium bromide. Digested samples were visualized briefly under UV light after approximately 2 h of electrophoresis (120 V) to confirm appropriate band separation. Lanes containing digested DNA in the gel were transferred onto a nitrocellulose membrane via vacuum suction, and DNA was cross-linked to the membrane through UV exposure. PCR amplification of the genomic DNA from parent isolate SC5314 using primers ERG11_Probe_F (5′-[…]-3′) and ERG11_Probe_R (5′-[…]-3′) generated a 254-bp product, used as a probe for the ERG11 gene locus. The probe was labeled and prepared using an Amersham AlkPhos direct labeling and detection system (GE Life Sciences) and hybridized to the membrane through overnight incubation at 55°C. Bands containing the hybridized, alkaline phosphatase-labeled probe corresponding to either wild-type ERG11 alleles (2,678 bp) or successfully replaced alleles with the SAT1/FLP cassette included (4,318 bp) or recycled (3,119 bp) were visualized with the CDP-Star chemiluminescent detection reagent. To confirm the sequence of the replaced ERG11 allele, a DNA fragment containing the ERG11 ORF and approximately 435 bp upstream of the start codon and 229 bp downstream of the ERG11 stop codon was PCR amplified using primers CaERG11_A_(ApaI) (5′-[…]-3′) and CaERG11_E_(XhoI) (5′-[…]-3′). The resulting DNA fragment was purified and Sanger sequenced on an ABI model 3130XL genetic analyzer with the following sequencing primers: CaERG11SeqA (5′-[…]-3′), CaERG11SeqB (5′-[…]-3′), CaERG11SeqC (5′-[…]-3′), CaERG11SeqD (5′-[…]-3′), CaERG11SeqE (5′-[…]-3′), and CaERG11SeqF (5′-[…]-3′).
(§2) Azole MICs were determined using the broth microdilution method described by the Clinical Laboratory and Standards Institute ([45], [46]). […] Measurements were read visually at 24 h after incubation at 35°C for a 50% reduction in growth from that in the drug-free control wells. MIC measurements were performed in duplicate, and the MIC was reported as the higher of two values for all strains tested. In cases where the duplicate MIC values were not identical, the higher of the two MIC values is reported. […] Additionally, no MICs differed by more than 2 dilutions for a given strain and drug.

[2] = system: fluconazole-susceptible parent strain SC5314; experiment: CLSI broth microdilution MIC; format: cell-based; conditions: Candida albicans; parent strain SC5314, no substitution; RPMI 1640, 24 h, 35°C, 50% reduction in growth
Excerpt: as §1, §2

[3] = system: C. albicans SC5314 strain with CaCYP51 substitution G450E; experiment: CLSI broth microdilution MIC; format: cell-based; conditions: Candida albicans, RPMI 1640, 24 h, 35°C, 50% reduction in growth
Excerpt: as §1, §2

[4] = system: C. albicans SC5314 strain with CaCYP51 substitution Y132F+F145L; experiment: CLSI broth microdilution MIC; format: cell-based; conditions: Candida albicans, RPMI 1640, 24 h, 35°C, 50% reduction in growth
Excerpt: as §1, §2

[5] = target: CaCYP51 proteins with amino acid substitutions; experiment: CYP51 reconstitution assay, span over several CaCYP51 proteins; format: biochemical, Candida albicans
Description: (§3) Azole antifungal agents were added in 2.5 μl dimethyl sulfoxide, followed by 10 min of incubation at 37°C prior to assay initiation with 4 mM β-NADPH-Na4. The samples were then shaken for 15 min at 37°C. Sterol metabolites were recovered by extraction with ethyl acetate, followed by derivatization with 0.1 ml N,O-bis(trimethylsilyl)trifluoroacetamide (BSTFA)–trimethylchlorosilane (TMCS) (99:1) and 0.3 ml anhydrous pyridine (2 h at 80°C), prior to analysis by gas chromatography-mass spectrometry (GC-MS) ([52]). IC50 determinations were performed in duplicate.

CaCYP51 Y132F+K143R [6] = target: T1, CaCYP51 Y132F+K143R (Candida albicans, UniProt P10613, K143R/Y132F); experiment: Azole ligand binding (type II difference spectra)
T1 construct: made in house; host or cells: E. coli DH5α (pCWori+)
T1 sequence (P10613 whole entry, looked up, stated change not applied): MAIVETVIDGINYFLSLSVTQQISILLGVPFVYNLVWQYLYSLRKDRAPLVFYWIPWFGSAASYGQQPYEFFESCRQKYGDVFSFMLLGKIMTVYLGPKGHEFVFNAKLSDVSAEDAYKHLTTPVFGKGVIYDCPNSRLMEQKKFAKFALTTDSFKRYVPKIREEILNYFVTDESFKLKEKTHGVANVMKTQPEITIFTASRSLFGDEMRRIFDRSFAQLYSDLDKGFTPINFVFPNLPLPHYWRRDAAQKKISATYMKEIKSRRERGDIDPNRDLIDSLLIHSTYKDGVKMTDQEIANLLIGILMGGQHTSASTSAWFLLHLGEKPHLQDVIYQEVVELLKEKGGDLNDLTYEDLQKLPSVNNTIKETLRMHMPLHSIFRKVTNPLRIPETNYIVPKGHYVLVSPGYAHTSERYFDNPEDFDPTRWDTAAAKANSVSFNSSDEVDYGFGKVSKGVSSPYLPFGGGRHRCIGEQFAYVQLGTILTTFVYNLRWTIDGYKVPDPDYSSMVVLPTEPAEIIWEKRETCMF
Description: (§4) Studies of azole antifungal binding to 4 μM CaCYP51 proteins were performed as previously described ([53]) using quartz split cuvettes with a 4.5-mm light path. […] Azole antifungals were progressively titrated against the CaCYP51 proteins in 0.1 M Tris-HCl (pH 8.1) and 25% glycerol at 22°C, with equivalent volumes of dimethyl sulfoxide also being added to the CYP51-containing compartment of the reference cuvette. The absorbance difference spectra between 500 and 350 nm were determined after each incremental addition of azole, with binding saturation curves constructed from the change in the peak and trough absorbance (ΔApeak-trough) against the azole concentration. The dissociation constant (Kd) of the enzyme-azole complex for each azole was determined by nonlinear regression (Levenberg-Marquardt algorithm) using a rearrangement of the Morrison equation for tight ligand binding ([54], [55]). Tight binding is normally observed when the Kd for a ligand is similar to or lower than the concentration of the enzyme present ([56]). Where ligand binding was weak, the Michaelis-Menten equation was used to fit the data. Each binding determination was performed in triplicate. The chemical structures of the azole antifungals used in this study are shown in Fig. S5 in the supplemental material.

CaCYP51 Y132F+F145L [7] = experiment: CYP51 reconstitution assay; format: biochemical, Candida albicans; conditions: Y132F+F145L
Description: as §3

CaCYP51 Y132F+K143R [8] = experiment: CYP51 reconstitution assay; format: biochemical, Candida albicans; conditions: Y132F+K143R
Description: as §3

CaCYP51 G307S+G450E = target: T2, CaCYP51 G307S+G450E (Candida albicans, UniProt P10613, G307S/G450E); experiment: Azole ligand binding (type II difference spectra)
T2 construct: made in house; host or cells: E. coli DH5α (pCWori+)
T2 sequence (P10613 whole entry, looked up, stated change not applied): as above
Description: as §4

CaCYP51 D278N = target: T3, CaCYP51 D278N (Candida albicans, UniProt P10613, D278N); experiment: Azole ligand binding (type II difference spectra); conditions: 4 μM protein, 22°C, ± standard deviation, triplicate, read-out: dissociation constant (Kd)
T3 construct: made in house; host or cells: E. coli DH5α (pCWori+)
T3 sequence (P10613 whole entry, looked up, stated change not applied): as above
Description: as §4

CaCYP51 S279F = target: T4, CaCYP51 S279F (Candida albicans, UniProt P10613, S279F); experiment: Azole ligand binding (type II difference spectra); conditions: 4 μM protein, 22°C, ± standard deviation, triplicate, read-out: dissociation constant (Kd)
T4 construct: made in house; host or cells: E. coli DH5α (pCWori+)
T4 sequence (P10613 whole entry, looked up, stated change not applied): as above
Description: as §4

CaCYP51 Y132F+F145L [9] = target: T5, CaCYP51 Y132F+F145L (Candida albicans, UniProt P10613, F145L/Y132F); experiment: Azole ligand binding (type II difference spectra)
T5 construct: made in house; host or cells: E. coli DH5α (pCWori+)
T5 sequence (P10613 whole entry, looked up, stated change not applied): as above
Description: as §4

| Compound | MIC [1] [µg/mL] | MIC [2] [µg/mL] | MIC [3] [µg/mL] | MIC [4] [µg/mL] | IC50 relative to that of the wild-type enzyme ([5]; none of the substituted CaCYP51 proteins greater than this) [fold] | Kd (CaCYP51 Y132F+K143R [6]) [µM] | fold increase in IC50 over wild-type enzyme (CaCYP51 Y132F+F145L [7]) | fold increase in IC50 over wild-type enzyme (CaCYP51 Y132F+K143R [8]) | Kd, fold higher than wild-type enzyme (CaCYP51 G307S+G450E) [fold] | Kd (CaCYP51 G307S+G450E; 4 μM protein, 22°C, ± standard deviation, triplicate, read-out: dissociation constant (Kd)) [nM] | Kd (CaCYP51 D278N) [nM] | Kd, fold larger than wild-type enzyme (CaCYP51 Y132F+K143R [6]; Y132F+K143R) [fold] | Kd (CaCYP51 S279F) [nM] | Kd (CaCYP51 Y132F+F145L [9]) [nM] | Kd, fold higher than wild-type enzyme (CaCYP51 Y132F+F145L [9]; Y132F+F145L) [fold] | Residual CYP51 activity, span over proteins ([5]; 4 μM voriconazole, K143R, S279F, G450E, Y132F+K143R, Y132H+K143R, Y132F+F145L, D278N+G464S) |
| --- | --- | --- | --- | --- | --- | --- | --- | --- | --- | --- | --- | --- | --- | --- | --- | --- |
| CCC(C)n1ncn(-c2ccc(N3CCN(c4ccc(OCC5COC(Cn6cncn6)(c6ccc(Cl)cc6Cl)O5)cc4)CC3)cc2)c1=O (centres unmarked) [Itraconazole, itraconazole] | 0.125 (≈ 0.177 µM) | 0.06 (≈ 0.085 µM) | 0.25 (≈ 0.354 µM) | 0.25 (≈ 0.354 µM) | ≤ 1.6 | 0.127 ± 0.033 | – | – | – | – | – | – | – | – | – | – |
| OC(Cn1cncn1)(Cn1cncn1)c1ccc(F)cc1F [Fluconazole, fluconazole] | – | 1 (≈ 3.27 µM) | 16 (≈ 52.2 µM) | 32 (≈ 104 µM) | – | 15.6 | 10 fold and 10.1 fold | 15 fold and 15.3 fold | 3 | 158 ± 38 | 120 ± 35 | 312 | 232 ± 36 | 202 ± 57 | 4 | – |
| C[C@@H](c1ncncc1F)[C@](O)(Cn1cncn1)c1ccc(F)cc1F [Voriconazole, voriconazole] | ≤ 0.03 | ≤ 0.03 | 0.5 (≈ 1.43 µM) | 1 (≈ 2.86 µM) | – | – | – | – | – | – | – | – | – | – | – | over 3% |
| CC[C@@H]([C@H](C)O)n1ncn(-c2ccc(N3CCN(c4ccc(OC[C@@H]5CO[C@@](Cn6cncn6)(c6ccc(F)cc6F)C5)cc4)CC3)cc2)c1=O [Posaconazole, posaconazole] | ≤ 0.03 | ≤ 0.03 | ≤ 0.03 | ≤ 0.03 | – | – | 2.2 fold | – | – | – | – | – | – | – | – | – |
